Experimental data from US20250051266A1, “Novel GLV-Phenolamide: Biosynthesis and Function in Protecting Plants from Herbivore Attack” (Max-Planck-Gesellschaft zur Förderung der Wissenschaften …, priority 2021, published 2025).
“Also recorded” adds a separate entry of the source.

Columns and labels:
NaPPO1 = target: T1, NaPPO1 (Nicotiana attenuata, UniProt A0A1J6JLI9); experiment: In vitro enzyme assay, substrate specificity of NaPPO1; type: biochemical
T1 sequence (A0A1J6JLI9 1-596): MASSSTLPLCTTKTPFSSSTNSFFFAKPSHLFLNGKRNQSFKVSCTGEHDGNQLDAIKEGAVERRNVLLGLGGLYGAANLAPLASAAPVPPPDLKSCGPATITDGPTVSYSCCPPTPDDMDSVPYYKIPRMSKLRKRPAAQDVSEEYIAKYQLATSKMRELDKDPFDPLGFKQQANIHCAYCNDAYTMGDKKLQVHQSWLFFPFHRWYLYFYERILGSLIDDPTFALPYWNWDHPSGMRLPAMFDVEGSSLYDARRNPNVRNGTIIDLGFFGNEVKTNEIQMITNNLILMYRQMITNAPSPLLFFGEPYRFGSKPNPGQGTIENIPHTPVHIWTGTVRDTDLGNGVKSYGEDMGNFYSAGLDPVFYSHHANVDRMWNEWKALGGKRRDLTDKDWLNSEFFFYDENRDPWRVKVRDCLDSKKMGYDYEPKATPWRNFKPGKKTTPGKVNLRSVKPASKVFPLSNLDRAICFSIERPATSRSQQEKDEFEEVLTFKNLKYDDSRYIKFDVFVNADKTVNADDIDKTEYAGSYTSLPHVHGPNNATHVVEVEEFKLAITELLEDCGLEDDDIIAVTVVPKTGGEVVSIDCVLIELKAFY
From the text: (§1) Extracted ion chromatograms (EIC) for doubly charged CP dimer (m/z 250.13) and m/z 347.19 in E. coli expressing NaPPO1 and NaPPO2 with CP and Z3H or (E)-2-hexenal. Compounds 1, 2, 3, 4 denote isomers of CP dimer; compounds 5, 6 denote isomers of m/z 347.19.
(§2) FIG. 53 Substrate specificity of NaPPO1 and NaPPO2 enzymes. Overlay of total ion chromatograms (TIC) of enzyme assays for authentic chlorogenic acid (CGA std), N-coumaroylputrescine (CoP std), (Z)-3-hexenal or (E)-2-hexenal with purified NaPPO1/NaPPO2 from E. coli. Compounds 1 and 2 denote CGA and CoP; 3 and 4 denote contamination peaks from (Z)-3-hexenal and CoP standards, respectively.
(§3) To test this hypothesis, purified NaPPO1, NaPPO2 and NaBBL2 proteins with N-terminal hexahistidine tags after expression in Escherichia coli were isolated (FIGS. 44-45). Incubation of either NaPPO1 or NaPPO2 (NaPPO1/2) with CP and (Z)-3-hexenal yielded a m/z 347.19 peak with identical MS/MS spectrum and retention time as the m/z 347.19 induced in N. attenuata leaves (FIG. 46). Additionally, by-products of doubly charged CP dimers at m/z 250.13 ([M+2H]2+, C26H36N4O62+) which are not detected in oral secretion-induced leaves of N. attenuata WT (Data 2) were also produced in vitro (FIG. 16 and FIG. 47). These doubly charged CP dimers were only produced when the quantities of the (Z)-3-hexenal substrate were lower than those of the CP substrate in vitro. […]
(§4) In vitro assays of NaPPO1, NaPPO2, and NaBBL2: NaPPO1, NaPPO2, and NaBBL2 enzyme activity assays were performed by incubating 100 μg of the purified recombinant protein in 84 mM acetate buffer (pH 4.8) containing 20 mM (E)-N-caffeoylputrescine (BOC Sciences, catalogue #: B0005-053482) and 1 M cis-3-hexenal (Sigma, catalogue #: W256102-SAMPLE-K) or trans-2-hexenal (Sigma, catalogue #: W256005-1KG-K). During incubation of the enzyme reactions at 8° C., 1 μL of the reactions buffer was directly injected and analyzed by LC-MS every h to detect products. […]

NaPPO2 = NaPPO2 (Nicotiana attenuata, UniProt A0A1J6IKE9); experiment: In vitro enzyme assay, substrate specificity of NaPPO2; type: biochemical
NaPPO2, sequence (A0A1J6IKE9 entry or part of it): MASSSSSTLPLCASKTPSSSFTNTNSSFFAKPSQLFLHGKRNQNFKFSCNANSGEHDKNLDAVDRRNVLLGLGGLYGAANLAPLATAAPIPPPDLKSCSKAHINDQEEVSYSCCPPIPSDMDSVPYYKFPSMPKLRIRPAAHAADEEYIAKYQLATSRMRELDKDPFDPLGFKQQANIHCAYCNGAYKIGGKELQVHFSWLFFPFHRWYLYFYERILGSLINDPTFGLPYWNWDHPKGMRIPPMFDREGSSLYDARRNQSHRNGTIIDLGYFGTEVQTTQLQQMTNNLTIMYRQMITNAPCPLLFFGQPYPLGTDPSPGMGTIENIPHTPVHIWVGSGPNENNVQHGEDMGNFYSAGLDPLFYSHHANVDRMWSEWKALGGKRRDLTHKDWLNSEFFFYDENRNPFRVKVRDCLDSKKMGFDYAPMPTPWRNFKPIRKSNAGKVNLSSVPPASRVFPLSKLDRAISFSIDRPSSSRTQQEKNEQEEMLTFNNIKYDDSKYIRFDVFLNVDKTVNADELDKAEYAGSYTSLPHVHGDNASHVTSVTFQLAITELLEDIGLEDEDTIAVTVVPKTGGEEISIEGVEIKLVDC
From the text: as §1, §2, §3, §4

Empoasca decipiens = experiment: In vitro Empoasca non-choice (direct feeding) assay on artificial diet; type: in vivo; details: for changes in mortality rates of E. decipiens compared to glucose controls: physiologically relevant concentrations (CoP 7 μM, CP 100 μM, FP 10 μM) in 10% glucose solution
Experimental: FIG. 18 Mortality rates of in vitro Empoasca non-choice assays (n=4, 25 Empoasca leafhoppers per replicate) in which Empoasca were fed for 6 h with either 1 μM m/z 347.19 synthesized by using NaPPO1/NaPPO2 and CP and Z3H and diluted in 10% glucose solution or with 10% glucose as control (top). Empoasca in planta choice assays (n=8) conducted with VIGS plants of EV, PPO1, PPO2 and AT1 (bottom).
To test if CPH is responsible for Empoasca resistance, E. decipiens were fed with physiologically relevant concentrations of 1 μM (estimated from field-collected elicited leaves) of NMR-confirmed CPH in diets containing 10% glucose in vitro. […] NaAT1 expression was silenced in N. attenuata plants using VIGS, which disrupted the production of both CP and the CPH (Li et al., Proc Natl Acad Sci USA 112, E4147-4155 (2015)) (FIG. 13).
Empoasca feeding assays: The survival rate of Empoasca feeding on artificial diet (10% 5 sucrose in water) supplemented with caffeoylputrescine (CP, 100 μM), coumaroylputrescine (CoP, 7 μM), feruloylputrescine (FP, 10 μM), or the m/z 347.19 hexenyl derivative of CP (CPH, 1 μM) was recorded every 1 h overnight. The artificial feeding devices consisted of a 50-mL Falcon tube with a 7-mm hole drilled into the conical bottom through which the leafhoppers were aspi-rated into the tube and which then was covered with Parafilm punctured with needles to create ventilation holes. The large opening of the Falcon tube was covered with a double layer of Parafilm containing the liquid diet (100 μL). The artificial feeding devices were placed upside down with the liquid diet side down on a White Light Box (STRATAGENE) to provide bottom-light illu-mination.

Empoasca leafhoppers = experiment: In vivo Empoasca choice assay, compounds infiltrated into irMYC2 leaves; set-up: species or system Empoasca decipiens; details: synthetic CoP 7 μM, CP 100 μM, FP 10 μM in 0.1% DMSO infiltrated into irMYC2 leaves
Experimental: The spermi-dine-derived metabolites could be excluded as mediators of Empoasca nonhost resistance based on the lack of responses of leafhoppers to the irDH29 and irCV86 lines (FIG. 5). To further explore the involvement of CoP, CP and FP, in vivo Empoasca choice assays were conducted by individually infiltrating physiologically relevant concentrations of synthetic CoP (7 μM), CP (100 μM) and FP (10 μM) into leaves of irMYC2 plants which were devoid of elicited phenolamides (FIG. 9 and FIG. 34).
Two replicates of the 650 RILs from a 26-parent MAGIC population and their 26 parental 5 lines were planted at the WCCER field station, Prescott, Arizona, USA. To elicit a standardized herbivory response, leaves of all RILs, which were in the early-flowering stage were wounded and immediately treated with diluted Manduca sexta oral secretions (W+OS) or left untreated (control) and harvested on dry ice at 1 h and 72h. One week after metabolite sampling, all plants of the field population were screened for natural Empoasca leafhopper numbers and damage; these leafhoppers had opportunistically sampled the N. attenuata plants from neighboring native cu-cumber hostplants. The mQTL and eQTL mapping between SNPs and the relative abundance of each compound or transcript using a set of 646 RILs of the MAGIC population was done with the R package software GAPIT using General linear models (GLM). The multi-omics co-association network was built from correlations among metabolomes, transcriptomes, phytohormones and SNPs. […] Metabolome diversity and specialization and metabolic specificity was calculated using information theory by consider-ing the Shannon entropy of the idMS/MS frequency distributions. […] OS-induced volatile emissions were collected using polydimethylsiloxane (PDMS) tubing from 650 MAGIC RILs planted in the main MPI-CE glasshouse and analyzed bythermal desorption-gas chromatography-mass spectrometry (TD-GC-MS). […]

[1] = Estimation of half-life of m/z 347.19 by NMR time acquisitions; type: physicochemical; details: acidified methanol-d3 (0.1% formic acid), room temperature, darkness
From the text: FIG. 55 Estimation of half-life of m/z 347.19. Different time acquisitions of NMR spectra for purified m/z 347.19 are shown.
(§5) To elucidate the chemical structure of m/z 347.19, it was attempted to isolate and purify the m/z 347.19 using induced N. attenuata leaf material and enzyme assay-derived products. However, several attempts failed due to the instability of m/z 347.19. […] These observations indicate that m/z 347.19 is reactive and unstable at high pH. The purification procedures for m/z 347.19 were modified to produce large quantities from enzymatic assays under weak acidic conditions and purified m/z 347.19 using solid phase extraction under argon atmospheres. The purified m/z 347.19 was then subjected to NMR analysis, which elucidated its structural identity as a CP-5-(Z)-3-hexenal compound (hereafter named CPH) (FIG. 54). […] CPH contains both a reactive moiety of a, 3-unsaturated aldehyde derived from (Z)-3-hexenal, which is electrophilic, and an amine feature of the caffeoylputrescine, which is nucleophilic.

[2] = Stability of m/z 347.19 during sample extraction and purification; type: physicochemical
From the text: as §5

In the case of `CCC/C=C/C=O` [(E)-2-hexenal], the “enzyme activity (m/z 347.19 production)” value (NaPPO1; NaPPO1 incubated with CP and (E)-2-hexenal) was “little-to-no activity” and the “enzyme activity (m/z 347.19 production)” value (NaPPO2; NaPPO2 incubated with CP and (E)-2-hexenal) was “little-to-no activity”.

In the case of `O=C(/C=C/c1ccc(O)c(O)c1)O[C@@H]1C[C@](O)(C(=O)O)C[C@@H](O)[C@H]1O` [CGA, chlorogenic acid], the “acceptance as substrate (new products)” value (NaPPO1; incubated with NaPPO1 and (Z)-3-hexenal) was “not accepted as substrates” and the “acceptance as substrate (new products)” value (NaPPO2; incubated with NaPPO2 and (Z)-3-hexenal) was “not accepted as substrates”.

With `NCCCCNC(=O)/C=C/c1ccc(O)c(O)c1` [CP, N-caffeoylputrescine] the “changes in mortality rates of E. decipiens compared to glucose controls” value (Empoasca decipiens) was “no significant changes in mortality rates; also recorded: not affecting leafhopper behavior or performance” and the “preference of Empoasca for irMYC2 plants” value (Empoasca leafhoppers) was “did not alter the preference; also recorded: not affecting leafhopper behavior or performance”.

With `CCC(/C=C/C=O)c1cc(O)c(O)cc1/C=C/C(=O)NCCCCN` (centres unmarked) [CPH, CP-5-(Z)-3-hexenal] the mortality at 1 µM (Empoasca decipiens; Empoasca decipiens, feed or water, 1 μM in diet containing 10% glucose, after 6 h of feeding, vs control diet, read-out: mortality of E. decipiens) was roughly 100%, the half-life [1] was roughly 22 h and the Stability ([2]; Leaf sample collection using Eppendorf tubes without direct contact with liquid N2) was “Yes”. For the same compound, the Stability ([2]; Leaf sample collection using aluminium foil in liquid N2) was “No”, the Stability ([2]; Purifying using SPE column with argon flow) was “Yes” and the Stability ([2]; Purifying using freeze drying) was “No”. For the same compound, the Stability ([2]; Purifying using rotary evaporator) was “No”, the Stability ([2]; Sample extraction buffer pH 4.8) was “Yes” and the Stability ([2]; Sample extraction buffer pH 10) was “No”. The stability in buffer ([2]; ammonium-acetate buffer (pH 4.8)) was “relatively stable”, the stability when concentrated ([2]; concentrated by rotatory evaporation or freeze drying) was “rapidly decomposed” and the “stability at high pH” value ([2]; high pH) was “unstable”.

In the case of `COc1cc(/C=C/C(=O)NCCCCN)ccc1O` [FP, N-feruloylputrescine], the “changes in mortality rates of E. decipiens compared to glucose controls” value (Empoasca decipiens) was “no significant changes in mortality rates; also recorded: not affecting leafhopper behavior or performance” and the “preference of Empoasca for irMYC2 plants” value (Empoasca leafhoppers) was “did not alter the preference; also recorded: not affecting leafhopper behavior or performance”.
